# What was measured:
# [1] = tested on: autochthonous prostate tumor (pDKO); assay: pDKO autochthonous prostate cancer mouse model; type: in vivo
# Method: To determine the sensitivity, SH-BC-893 was evaluated in a validated genetically-engineered mouse model for invasive castration-resistant prostate cancer that lacks p53 and PTEN expression exclusively in the prostate (pDKO) (Wu X, et al. Am J Clin Exp Urol. 2014; 2(2):111-20; Schwarzenböck S, et al. Theranostics. 2012; 2(3):318-330; Chen Z, et al. Nature. 2005; 436(7051):725-730; the disclosures of which are herein incorporated by reference). […] SH-BC-893, however, still produced a phenotype consistent with starvation as the bound NADH fraction increased and cell permeant nutrients protected mPCE cells from death (FIGS. 65A and 65C). Prostate cancer cells depend on exogenous LDL for growth and survival. […] Ceramide and YM201636 both reduced surface LDLr levels, but LDLr still accumulated in different intracellular compartments (FIG. 66A). Consistent with their ability to block lysosomal fusion (FIG. 61), both YM201636 and SH-BC-893 reduced LDL co-localization with Lysotracker Blue (FIGS. 65F and 65G). In keeping with the inhibition of LDL degradation in lysosomes, cellular lipid droplet content was inversely correlated with the extent of vacuolation (FIG. 66B). In summary, sphingolipid-like compounds, such as SH-BC-893, starve slow-growing neoplasms, such prostate cancer, by down-regulating nutrient transporters and blocking lysosomal nutrient generation.
# The ability of starvation-inducing sphingolipid-like drugs to affect the growth of slow growing or autochthonous neoplasms was also evaluated. In C57BL/6 mice bearing mPCE subcutaneous isografts, 60 mg/kg SH-BC-893 was given daily by gavage and slowed tumor growth by 60% similar to results with SW620 xenografts dosed with 20 mg/kg i.p. (FIGS. 53G-I and 65I). At 120 mg/kg, SH-BC-893 inhibited prostate tumor growth by more than 90% (FIG. 65I). […] Akt activity was slightly elevated by SH-BC-893 consistent with loss of TORC1-mediated negative feedback. Thus, sphingolipid-like compounds, such as SH-BC-893, are effective against neoplasms with distinct molecular defects and metabolic characteristics.
# SH-BC-893 produces equivalent transporter loss and vacuolation in normal and transformed cells and therefore also limits the access of normal cells to nutrients (FIGS. 51C, 51E, 56B and 56C). […] The lack of toxicity to normal tissues is consistent with the finding that non-transformed cells can adapt to nutrient stress that triggers a bioenergetic crisis in less metabolically flexible tumor cells (FIGS. 53D and 53E).
# In vivo studies. Experiments conducted in mice were performed in accordance with the Institutional Animal Care and Use Committee of University of California, Irvine following a power analysis conducted in consultation with the Biostatistics Shared Resource of Chao Family Comprehensive Cancer Center at UCI. Xenografts were produced by injecting 5 million cells subcutaneously in the flank of 10-16 week-old male or female NSG mice. Prostate isografts were produced in the same manner but in male 6-8 wk old C57BL/6 mice. Once tumors reached 100 mm^3, SH-BC-893 was administered by intraperitoneal (i.p.) injection or oral gavage as indicated. Tumor volume was calculated using the formula, volume (mm^3)=length [mm]×(width [mm])^2×0.52; BLI was measured using an IVIS imaging system (Xenogen). To generate pDKO mice on the C57BL6 background, Pten^flox mice (stock No. 0045597) and p53^flox mice (stock No. 008462) were obtained from the Jackson Laboratory and PB-Cre4 mice (strain #01XF5) were obtained from the NCI-Frederick Mouse Repository. Age-matched cohorts of pDKO males were generated by in vitro fertilization executed with the assistance of the Transgenic Mouse Facility at UC Irvine. Treatment was begun at 6-7 wks of age. […] Tumor samples were processed and imaged by the Pathology Research Services Core Facility at UC Irvine. Blood chemistry was analyzed by IDEXX BioResearch and complete blood counts were performed using a Hemavet hematology system.
# [2] = tested on: non-transformed and cancer cells; assay: Cytosolic vacuolation by SH-BC-893; type: cell-based; conditions: both non-transformed and cancer cells
# Description: Certain embodiments of the invention are directed to azacyclic constrained sphingolipid-like molecules to inhibit macropinocytosis and autophagy, consistent with the bioenergetic mechanism. This aspect of the mechanism was unexpected because it was initially believed in that these molecules would only reduce nutrient transporter surface expression. However, considering that Ras activation increases macropinocytosis and autophagy, and the finding that SH-BC-893 was very effective against neoplastic cells with activated Ras led to the hypothesis that azacyclic constrained sphingolipid-like molecules might also affect macropinocytosis and autophagy pathways. […]
# Light Microscopy: Brightfield and epifluorescence microscopy were conducted using a Nikon TE2000-S fluorescence microscope; confocal microscopy was performed on a Zeiss LSM780 confocal microscope or Nikon Eclipse Ti spinning disk confocal microscope. […] Co-localization was determined using JACoP plugin in ImageJ software. Macropinocytosis was measured after 16 h incubation in serum-free DMEM. p53−/−; LSL-K-RasG12D MEFs before (LSL) or after (KRasG12D) introduction of Cre were serum starved for 16 h and then treated with macropinocytosis inhibitor 5-(N-ethyl-N-isopropyl) amiloride (EIPA, 75 μM) for 1 h or SH-BC-893 for 6 h. […]
smiles,measurement,setting,value
"CCCCCCCCc1ccc([C@H]2CCN[C@@H]2CO)cc1.Cl [Compound 5, (2S,3R)-2-(hydroxymethyl)-3-(4-octylphenyl)Pyrrolidinium chloride]",histopathology of intestinal crypts,[1]; mice treated with 120 mg/kg for 11 weeks,normal
same,weight gain,[1]; pDKO mice,gained less weight than untreated mice
same,decrease of autochthonous tumor growth,"[1]; pDKO mice, 60 mg/kg",62%
same,decrease of autochthonous tumor growth,"[1]; pDKO mice, 120 mg/kg",82%
same,"prostate tumor progression, histology","[1]; pDKO mice, treated mice exclusively exhibited prostatic intraepithelial neoplasia",slowed prostate tumor progression
same,TORC1-dependent ribosomal protein S6 phosphorylation in tumors,[1]; treated prostate tumors,reduced
same,cytosolic vacuolation,[2],induced equally striking cytosolic vacuolation

# Reference: patent US10995068B2, “Synthetic sphingolipid-like molecules, drugs, methods of their synthesis and methods of treatment” (The Regents of the University of California, priority 2015, dated 2021)
